In data set [1] the target is T1, SULT2A8 (Mus musculus, UniProt Q8BGL3).
T1 construct: truncated, residues 4-282 (first three residues removed), N-terminal GST tag cleaved with PreScission protease (pGEX-6P-3); E. coli BL21(DE3), purified from inclusion bodies; homodimer in crystal
T1 sequence (Q8BGL3 4-282): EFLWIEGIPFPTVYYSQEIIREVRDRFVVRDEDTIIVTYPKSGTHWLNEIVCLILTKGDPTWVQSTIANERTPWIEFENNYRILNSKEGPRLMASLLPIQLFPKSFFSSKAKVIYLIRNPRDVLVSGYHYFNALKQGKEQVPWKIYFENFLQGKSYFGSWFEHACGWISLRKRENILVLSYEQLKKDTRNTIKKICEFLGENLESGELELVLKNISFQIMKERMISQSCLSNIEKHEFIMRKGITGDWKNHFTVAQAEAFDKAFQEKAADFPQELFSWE
Nature of the data set: X-ray crystal structure. Type of data set: binding. The conditions noted are these: pH 5.1.

Data set [2] has as its target T1, SULT2A8. As to the kind of experiment: thermal shift assay (Thermofluor). The class given is binding. The conditions noted are these: 20 mM Hepes pH 8.0, 150 mM NaCl, 4 mM DTT, ligand 250 mM [sic]. For orientation: Differential scanning fluorimetry follows unfolding on heating by fluorescence.
Data set [3] deals with T1, SULT2A8. As to the kind of experiment: HPLC of PAP generated. Type of data set: biochemical. The conditions noted are these: 50 μM PAPS, 100 μM bile acid, 2.5 mM MgCl2, pH 5.5 or 7.5, 37°C.
In data set [4] the target is T2, SULT2A8 (Mus musculus, UniProt Q8BGL3, L99V).
T2 construct: truncated, residues 4-282 (first three residues removed), N-terminal GST tag cleaved with PreScission protease (pGEX-6P-3); E. coli BL21(DE3), purified from inclusion bodies; homodimer in crystal
T2 sequence (Q8BGL3 4-282 L99V): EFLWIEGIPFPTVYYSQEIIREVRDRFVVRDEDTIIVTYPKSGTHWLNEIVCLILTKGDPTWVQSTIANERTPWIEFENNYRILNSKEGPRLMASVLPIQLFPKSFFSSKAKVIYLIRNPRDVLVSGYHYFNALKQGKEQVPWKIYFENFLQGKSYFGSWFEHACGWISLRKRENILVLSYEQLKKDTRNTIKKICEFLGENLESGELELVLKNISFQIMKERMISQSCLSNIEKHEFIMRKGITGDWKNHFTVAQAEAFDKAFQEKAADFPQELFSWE
As to the kind of experiment: thermal shift assay (Thermofluor). The class given is binding. Particulars: 20 mM Hepes pH 8.0, 150 mM NaCl, 4 mM DTT; ligand 250 mM [sic].

In data set [5] the target is T3, SULT2A8 (Mus musculus, UniProt Q8BGL3, N72W).
T3 construct: truncated, residues 4-282 (first three residues removed), N-terminal GST tag cleaved with PreScission protease (pGEX-6P-3); E. coli BL21(DE3), purified from inclusion bodies; homodimer in crystal
T3 sequence (Q8BGL3 4-282 N72W): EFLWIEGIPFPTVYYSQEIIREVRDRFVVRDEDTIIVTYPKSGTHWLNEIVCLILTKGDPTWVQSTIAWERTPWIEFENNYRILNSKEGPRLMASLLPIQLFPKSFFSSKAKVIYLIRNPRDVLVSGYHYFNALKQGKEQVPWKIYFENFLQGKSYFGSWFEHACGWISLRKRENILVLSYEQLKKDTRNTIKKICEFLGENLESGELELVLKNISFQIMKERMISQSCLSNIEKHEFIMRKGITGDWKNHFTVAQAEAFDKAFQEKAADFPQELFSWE
As to the kind of experiment: thermal shift assay (Thermofluor). Type of data set: binding. The conditions noted are these: 20 mM Hepes pH 8.0, 150 mM NaCl, 4 mM DTT; ligand 250 mM [sic].

Data set [6] concerns the target T4, SULT2A8 (Mus musculus, UniProt Q8BGL3, H48T).
T4 construct: truncated, residues 4-282 (first three residues removed), N-terminal GST tag cleaved with PreScission protease (pGEX-6P-3); E. coli BL21(DE3), purified from inclusion bodies; homodimer in crystal
T4 sequence (Q8BGL3 4-282 H48T): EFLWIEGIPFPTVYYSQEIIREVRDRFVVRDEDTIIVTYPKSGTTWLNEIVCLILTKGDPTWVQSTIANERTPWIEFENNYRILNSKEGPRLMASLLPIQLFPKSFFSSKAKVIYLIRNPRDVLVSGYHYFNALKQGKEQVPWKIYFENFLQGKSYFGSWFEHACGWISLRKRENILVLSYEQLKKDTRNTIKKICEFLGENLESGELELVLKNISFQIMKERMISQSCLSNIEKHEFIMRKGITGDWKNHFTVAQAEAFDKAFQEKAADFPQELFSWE
Nature of the data set: thermal shift assay (Thermofluor). Type of data set: binding. The conditions noted are these: 20 mM Hepes pH 8.0, 150 mM NaCl, 4 mM DTT; ligand 250 mM [sic].

The target in data set [7] is T5, SULT2A8 (Mus musculus, UniProt Q8BGL3, L99T).
T5 construct: truncated, residues 4-282 (first three residues removed), N-terminal GST tag cleaved with PreScission protease (pGEX-6P-3); E. coli BL21(DE3), purified from inclusion bodies; homodimer in crystal
T5 sequence (Q8BGL3 4-282 L99T): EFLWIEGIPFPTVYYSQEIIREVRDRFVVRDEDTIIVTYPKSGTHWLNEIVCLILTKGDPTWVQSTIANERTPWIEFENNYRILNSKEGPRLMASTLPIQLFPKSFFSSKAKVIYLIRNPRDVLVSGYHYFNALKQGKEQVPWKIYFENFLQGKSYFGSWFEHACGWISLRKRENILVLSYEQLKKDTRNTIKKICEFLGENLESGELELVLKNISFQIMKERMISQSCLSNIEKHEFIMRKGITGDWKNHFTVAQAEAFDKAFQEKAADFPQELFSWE
Nature of the data set: thermal shift assay (Thermofluor). Particulars: 20 mM Hepes pH 8.0, 150 mM NaCl, 4 mM DTT; ligand 250 mM [sic]. Type of data set: binding.

Data set [8] concerns the molecule itself. As to the kind of experiment: crystal structure; SULT2A8 (4-282) cocrystallised with PAP and CA, pH 5.1, 16°C; space group P4(2), two copies per asymmetric unit; dimerization read from analysis of the crystal packing.

Regarding `C[C@H](CCC(=O)O)[C@H]1CC[C@H]2[C@@H]3[C@H](O)C[C@@H]4C[C@H](O)CC[C@]4(C)[C@H]3C[C@H](O)[C@]12C` [CA], the “X-ray crystal structure, 2.5 A” value in data set [1] (co-crystal with PAP, substrate pocket) is “SULT2A8 was cocrystallized with PAP and its native substrate CA”.

As to `C[C@H](CCC(=O)O)[C@H]1CC[C@H]2[C@@H]3[C@H](O)C[C@@H]4C[C@H](O)CC[C@]4(C)[C@H]3CC[C@]12C` [Na CDC], in data set [2], the Tm entry is “Na CDC, or sodium taurochenodeoxycholate) were added”.

For `C[C@H](CCC(=O)O)[C@H]1CC[C@H]2[C@@H]3[C@H](O)C[C@@H]4C[C@H](O)CC[C@]4(C)[C@H]3C[C@H](O)[C@]12C` [Na C], in data set [2] (with PAP), the Tm result is “Tm values were further increased when both PAP and native substrates (Na C, Na T-C”.

As to `C[C@H](CCC(=O)NCCS(=O)(=O)O)[C@H]1CC[C@H]2[C@@H]3[C@H](O)C[C@@H]4C[C@H](O)CC[C@]4(C)[C@H]3CC[C@]12C` [Na T-CDC], the Tm entry in data set [2] is “Na CDC, or sodium taurochenodeoxycholate) were added”.

With `Nc1ncnc2c1ncn2[C@@H]1O[C@H](COP(=O)(O)OS(=O)(=O)O)[C@@H](OP(=O)(O)O)[C@H]1O` [PAPS], the “HPLC of PAP generated” value in data set [3] was “quantification of PAP generated from the sulfonation of substrates”.

As for `Nc1ncnc2c1ncn2[C@@H]1O[C@H](COP(=O)(O)O)[C@@H](OP(=O)(O)O)[C@H]1O` [PAP], the Tm entry was “from 54 to 61 °C” in data set [2]; “Tm values of these mutants were significantly increased when PAP was included” in data set [4]; “the Tm value of N72W was increased when PAP was added” in data set [5]; “Tm values of these mutants were significantly increased when PAP was included” in data set [6]; “Tm values of these mutants were significantly increased when PAP was included” in data set [7]. Further, the “X-ray crystal structure, 2.5 A” value in data set [1] (co-crystal with cholic acid, PAPS binding pocket, cofactor product/analogue) was “SULT2A8 protein was cocrystallized with PAP and CA”.

B1: mouse cytosolic sulfotransferase SULT2A8 (residues 4-282) (enzyme, UniProt Q8BGL3 4-282, looked up)
chain: EFLWIEGIPFPTVYYSQEIIREVRDRFVVRDEDTIIVTYPKSGTHWLNEIVCLILTKGDPTWVQSTIANERTPWIEFENNYRILNSKEGPRLMASLLPIQLFPKSFFSSKAKVIYLIRNPRDVLVSGYHYFNALKQGKEQVPWKIYFENFLQGKSYFGSWFEHACGWISLRKRENILVLSYEQLKKDTRNTIKKICEFLGENLESGELELVLKNISFQIMKERMISQSCLSNIEKHEFIMRKGITGDWKNHFTVAQAEAFDKAFQEKAADFPQELFSWE
notes: Sulfotransferase 2A8 (SULT2A8), mouse, residues 4-282 (first three N-terminal residues removed), cloned in pGEX-6P-3 from pRSET-SULT2A8; Crystallised with the small molecules PAP and cholic acid; two copies per asymmetric unit; also called mSULT2A8; SULT2A8 WT; source: E. coli BL21(DE3), purified from inclusion bodies (Glutathione Sepharose 4B, PreScission cleavage, Superdex 75); not shown: GST, …
As to B1, in data set [8], the binding result was “binds”.

Values taken from paper PMC8134075, “Structure of mouse cytosolic sulfotransferase SULT2A8 provides insight into sulfonation of 7α-hydroxyl bile acids” (Journal of Lipid Research, 2021).
